Patent US20260109721A1, “IONIZABLE CATIONIC LIPIDS INCORPORATING SILICON: SYNTHESIS AND LNP FORMULATION” (priority 2023, published 2026)

Columns and labels:
[1] = tested on: HeLa cells; assay: Transfection efficiency with Luciferase (SecNLuc) mRNA, Nano-Glo assay (Method A); format: cell-based; conditions: Luc mRNA, 24 h, luminescence; for Transfection 10 ng mRNA: 10 ng mRNA/well; for Transfection 50 ng mRNA: 50 ng mRNA/well; for Transfection 100 ng mRNA: 100 ng mRNA/well
Description: (§1) The synthesized lipids were tested in term of in vitro transfection efficacy and toxicity on HeLa cells. In order to perform the mentioned biological tests, appropriate LNPs had to be formulated from the synthesized lipids. The formulation technique was different in Method A and B. The particle size, polydispersity index (PDI) and zeta potential of resulting LNPs were determined by means of Dynamic Light Scattering technique (DLS). Prior to biological testing the encapsulation efficiency (EE) of the loaded LNPs was determined by using RiboGreen RNA assay. In case of Method A Luc mRNA while in case of Method B GFP mRNA was transfected into the cells. In parallel with the transfection experiments, toxicity of the investigated LNPs was determined, in case of Method A resazurin assay while in case of Method B MTT assay was used. Additionally, the toxicity of the lipids was investigated on HepG2 cells and IC50 values were determined.
• 1. Prepare mRNA solution by adding 100 ng mRNA (SecNLuc, #P009024, RiboPro) to 5 μl Opti-MEM • multiply by number of wells, include different concentrations and add 10% extra • a standard set-up we use is 100 ng-50 ng-10 ng mRNA/well in triplicate, which would need […] mRNA (includes 10% extra)
• 2. (If applicable) Prepare different concentrations in Opti-MEM (for instance 100/50/10 ng). • 3. Add 10 μl to each well and mix carefully by pipetting. • 4. Mix by swirling the plate horizontally at modest speed. Reverse in direction 3 times. • 5. Incubate for 24 hours (incubator).
This protocol is applied to measure luciferase activity for secreted NanoLuc and is based on the protocol by Promega (Nano-Glo® Luciferase Assay System #N1110-1150). The protocol is designed for a 384-wells plate, but volumes can be changed accordingly for other plates.
• 1. Plate cells (HeLa) in 96-well plate, grow until 80% confluent and transfect with SecNanoLuc mRNA and incubate for the desired period (24 h). • 2. After incubation, the translated protein is accumulated in the medium. Transfer medium to a new plate or tubes. • 3. Transfer 12 μl of each sample to a black-walled, clear-bottom 384-well plate • Black-walled plates are important to prevent shine-through of luminescence from other wells; alternatively, multiple wells between samples can be left empty. • 4. Set-up plate reader • 5. Prepare the desired amount of Nano-Glo® Luciferase Assay Reagent by combining one volume of Nano-Glo® Luciferase Assay Substrate with 50 volumes of Nano-Glo® Luciferase Assay Buffer: • a. composition: 100 mM MES pH 6; 1 mM EDTA; […]; 150 mM KCl; 1 mM DTT; 35 mM Thiourea; • b. briefly spin tubes containing substrate in a microcentrifuge before use. • 6. Add and mix (by pipetting) 12 μl Nano-Glo® Luciferase Assay Reagent per well • Wait approximately 3 minutes before measuring luminescence. […] Measure luminescence in plate reader using standard protocol luciferase (this includes mixing sample in plate reader)

[2] = tested on: HepG2 cell line; assay: In vitro toxicity study on HepG2 cell line (resazurin, viability and IC50); format: cell-based, human; conditions: resazurin; for Viability (%) at different lipid concentrations, mean: HepG2 cells, 48 h post-treatment, relative to ethanol vehicle controls; for IC50: Homo sapiens, lipid toxicity, HepG2, 48 h post-treatment, 6.25-800 μM, read-out: IC50 value, μM (on HepG2 cell)
Description: as §1
HepG2 cell line (human hepatocellular carcinoma) were maintained in DMEM medium supplemented with 10% FBS. Cell toxicity measurements were carried out in 384-well microtiter plates with 1000 cells seeded in each well. Test measurements were carried out in triplicate, and control measurements in quadruplicate. After an overnight incubation, the cells were treated with an increasing concentration of the test compounds (6.25, 12.5, 25, 50, 100, 200, 400, 800 μM). […] 48 h post-treatment, following visual inspection under an inverted microscope, cell viability was measured by resazurin assay. Viability of treated cells was calculated relative to that of ethanol vehicle controls. Concentration response curves (CRCs) were obtained and corresponding IC50 values were calculated where applicable and are shown in Table 9.
Resazurin reagent (Sigma-Aldrich) was dissolved in PBS (pH 7.4) at 0.15 mg/ml concentration, 0.22 μm filtered and aliquoted at −20° C., 10 μl resazurin stock solution was added to wells. After 5 hours incubation at 37° C. under 5% CO2 fluorescence (530 nm excitation/580 nm emission) was recorded on a multimode microplate reader.

Structure (SMILES) | Transfection 10 ng mRNA [1] | Transfection 50 ng mRNA [1] | Transfection 100 ng mRNA [1] | Viability (%) at different lipid concentrations, mean ([2]; 6.25 μM lipid) | Viability (%) at different lipid concentrations, mean ([2]; 12.5 μM lipid) | Viability (%) at different lipid concentrations, mean ([2]; 25 μM lipid) | Viability (%) at different lipid concentrations, mean ([2]; 50 μM lipid) | Viability (%) at different lipid concentrations, mean ([2]; 100 μM lipid) | Viability (%) at different lipid concentrations, mean ([2]; 200 μM lipid) | Viability (%) at different lipid concentrations, mean ([2]; 400 μM lipid) | Viability (%) at different lipid concentrations, mean ([2]; 800 μM lipid) | IC50 [2]
CCCCCCCC/C=C\CCCCCCCC(OCCCCCCCCCCCCCCCC)O[Si](C)(C)OCCCCCCN(CCO)CCO (stereo not drawn) [Example 42, (Z)-13-(heptadec-8-en-1-yl)-3-(2-hydroxyethyl)-11,11-dimethyl-10,12,14-trioxa-3-aza-11-silatriacontan-1-ol] | 6.16E+04 | 1.32E+06 | 5.53E+06 | 105.1% | 100.0% | 98.9% | 102.2% | 107.6% | 117.1% | 104.2% | 99.8% | > 800 µM
CCCCC/C=C\C/C=C\CCCCCCCCOC(CCCCCCCCCCCCCCC)O[Si](C)(C)OCCCCCCN(CCO)CCO (stereo not drawn) [Example 43, (23Z,26Z)-3-(2-hydroxyethyl)-11,11-dimethyl-13-pentadecyl-10,12,14-trioxa-3-aza-11-siladotriaconta-23,26-dien-1-ol] | 4.81E+05 | 5.50E+06 | 1.32E+07 | 100.9% | 98.7% | 102.2% | 111.9% | 114.9% | 108.9% | 92.1% | 89.8% | > 800 µM
CCCCC/C=C\C/C=C\CCCCCCCC(OCCCCCCCCCCCCCCCC)O[Si](C)(C)OCCCCCCN(CCO)CCO (stereo not drawn) [Example 44, 13-((8Z,11Z)-heptadeca-8,11-dien-1-yl)-3-(2-hydroxyethyl)-11,11-dimethyl-10,12,14-trioxa-3-aza-11-silatriacontan-1-ol] | 1.57E+05 | 2.08E+06 | 7.09E+06 | 100.8% | 98.5% | 106.8% | 112.7% | 122.0% | 118.8% | 103.0% | 94.0% | > 800 µM
CCCCC/C=C\C/C=C\CCCCCCCC(OCCCCCCCC/C=C\CCCCCCCC)O[Si](C)(C)OCCCCCCN(CCO)CCO (stereo not drawn) [Example 45, (Z)-13-((8Z,11Z)-heptadeca-8,11-dien-1-yl)-3-(2-hydroxyethyl)-11,11-dimethyl-10,12,14-trioxa-3-aza-11-siladotriacont-23-en-1-ol] | 1.80E+05 | 2.42E+06 | 7.94E+06 | 105.6% | 99.4% | 100.4% | 106.0% | 109.5% | 107.1% | 64.9% | 1.1% | 421 µM
CCCCC/C=C\C/C=C\CCCCCCCCOC(CCCCCCC/C=C\CCCCCCCC)O[Si](C)(C)OCCCCCCN(CCO)CCO (stereo not drawn) [Example 46, (23Z,26Z)-13-((Z)-heptadec-8-en-1-yl)-3-(2-hydroxyethyl)-11,11-dimethyl-10,12,14-trioxa-3-aza-11-siladotriaconta-23,26-dien-1-ol] | 1.46E+05 | 1.93E+06 | 8.16E+06 | 103.7% | 100.6% | 101.2% | 97.4% | 103.1% | 101.8% | 99.8% | 92.1% | > 800 µM
CCCCCCCC/C=C\CCCCCCCCOC(CCCCCCC/C=C\CCCCCCCC)O[Si](C)(C)OCCCCCCN(CCO)CCO (stereo not drawn) [Example 47, (Z)-13-((Z)-heptadec-8-en-1-yl)-3-(2-hydroxyethyl)-11,11-dimethyl-10,12,14-trioxa-3-aza-11-siladotriacont-23-en-1-ol] | 3.37E+04 | 1.29E+06 | 7.06E+06 | 104.8% | 98.6% | 99.5% | 105.3% | 112.3% | 116.3% | 97.9% | 93.6% | > 800 µM
